Results published in US20250237010A1, “Selenium Containing Antimicrobial Compound as a Reacitve Dye and Cross-Linking Treatment for Textile Applications” (Texas Tech University System, priority 2021, published 2025).
Like-named read-outs stand apart in the source and are kept apart here.

Assays:
Staphylococcus aureus = experiment: Bacterial killing (CFUs/sample) on cotton fabric treated with the organo-selenium compound, Gram-positive; format: cell-based
Description: (§1) FIGS. 1A and 1B are graphs that compares the colony forming units (CFUs) per sample of bacteria on a fabric, showing total bacterial killing with the organoselenium compound, and no killing without the organoselenium compound. In this example, the organoselenium compound was applied to the fabric as a reactive dye.
(§2) The technology modifies triazines, a commonly used reactive dye within the textile chemistry for application to impart colors to fabrics, by incorporation of selenium to create a reactive dye with antimicrobial characteristics. Since the cotton manufacturing/processing industry currently relies on annealing of triazine to create colored fabrics, the presented technology can be incorporated into this sector with minimal changes in the production environment. The created compound, diseleniummonochlorotriazine, was evaluated in the laboratory by attaching the Se-based compound onto cotton fabrics with the following results: (1) Diseleniummonochlorotriazine killed 100% of Gram-positive bacteria (e.g., Staphylococcus aureus) that attempted to bind to the cotton, and (2) Diseleniummonochlorotriazine killed 90% of Gram-negative bacteria. (e.g., Pseudomonas aeruginosa) that attempted to bind to the cotton.
(§3) Example 1. […] The application technique for the organo-selenium compound can be used by, e.g., the textile industry, on an industrial scale to produce an anti-microbial fabric. […]

[1] = Binding to cotton and resistance to washing of the resulting fabric; format: physicochemical; settings: attached to cotton yarns as reactive dye
Description: Briefly, the inventors developed organo-selenium compounds that can be attached to cotton yarns and is suitable for applications as reactive dye.

Pseudomonas aeruginosa = experiment: Bacterial killing (CFUs/sample) on cotton fabric treated with the organo-selenium compound, Gram-negative; format: cell-based; settings: compound attached onto cotton fabric; e.g. Pseudomonas aeruginosa
Description: as §1, §2, §3

[2] = test system: gram-negative and gram-positive bacteria; experiment: Antimicrobial activity compared with industry requirements; format: cell-based
Description: In one example, the invention is the chemical compound diseleniummonochlorotriazine. Triazines are commonly used in the textile chemistry to synthesis the reactive dye and apply to fabrics as they form covalent bonds with cellulose. Incorporating selenium creates a reactive dye with antimicrobial properties. This same base structure can be used to make diselenocyanuric chloride, diselenocyanuric bromide, diselenocyanuric fluoride, or diselenocyanuric iodine. […] In one example, the antimicrobial agent has the structure: […]

Molecule	killing of Staphylococcus aureus on the fabric (CFUs per sample), in words (Staphylococcus aureus; treated cotton fabric, FIG. 1A, applied as reactive dye)	binding to the cotton and resistance to washing [1]	killed % of Gram-positive bacteria that attempted to bind to the cotton (Staphylococcus aureus; compound attached onto cotton fabric, e.g. Staphylococcus aureus) [%]	killed % of Gram-negative bacteria that attempted to bind to the cotton (Pseudomonas aeruginosa) [%]	antimicrobial activity level relative to industry expectations/requirements [2]	antimicrobial activity level relative to industry expectations/requirements ([2]; listed as diseleniummonochlorotriazine)
diselenocyanuric chloride	totally kill	resistant to multiple washings				
Clc1nc([SeH])nc([SeH])n1 [Diseleniummonochlorotriazine, diseleniummonochlorotriazine]			100	90	matches industry expectations	matches or exceed industrial requirements
OCC(O)C[Se][Se]CC(O)CO (stereo not shown)					matches or exceed industrial requirements	
